Here are results for 23 compounds from patent US12570642B2, “GLP-IR modulating compounds” (Gilead Sciences, Inc., priority 2021, dated 2026).

Structures are written as SMILES.

In this experiment the target is GLP-1R (Homo sapiens, UniProt P43220). The experiment in a line: GLP-1R Activation - cAMP Assay. Format: cell-based. As to conditions: cAMP increase in CHO cells stably expressing GLP-1R; each compound run on one of the two cAMP assays (Assay 1 or Assay 2, not specified). The essentials: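 cAMP rise read by HTRF after 30 min agonist exposure (10-point titration, 37 °C) in HBSS/20 mM Hepes/0.1% BSA, following 1 h pre-incubation. Cells: stable GLP-1R CHO line, 1,000/well, seeded overnight. Sigmoidal fit of response vs log concentration gives EC50.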
Sequence of GLP-1R (P43220 24-463): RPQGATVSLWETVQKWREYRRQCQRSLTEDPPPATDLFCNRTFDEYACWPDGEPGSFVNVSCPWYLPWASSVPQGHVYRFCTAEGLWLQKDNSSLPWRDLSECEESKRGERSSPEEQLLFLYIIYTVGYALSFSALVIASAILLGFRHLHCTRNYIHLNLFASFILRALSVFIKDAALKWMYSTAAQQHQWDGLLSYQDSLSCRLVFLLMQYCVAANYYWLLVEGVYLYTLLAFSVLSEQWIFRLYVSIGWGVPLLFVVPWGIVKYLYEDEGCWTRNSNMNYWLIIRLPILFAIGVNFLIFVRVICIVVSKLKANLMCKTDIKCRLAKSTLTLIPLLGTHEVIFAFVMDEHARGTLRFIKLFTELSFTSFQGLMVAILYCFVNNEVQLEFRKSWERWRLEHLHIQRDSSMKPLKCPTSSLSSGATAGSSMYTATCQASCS
In turn, `CC1(C)COC[C@H]1n1c(Cc2ccc(-c3ccnc(OCc4ccc(C#N)cc4F)n3)cc2F)nc2c(F)cc(C(=O)O)cc21` [Example 298, (S)-2-(4-(2-((4-cyano-2-fluorobenzyl)oxy)pyrimidin-4-yl)-2-fluorobenzyl)-1-(4,4-dimethyltetrahydrofuran-3-yl)-4-fluoro-1H-benzo[d]imidazole-6-carboxylic acid] gave an EC50 of 0.663 nM. For `CC1(C)COC[C@H]1n1c(Cc2cc(F)c(-c3ccc(F)c(OCc4ccc(Cl)cc4)n3)cc2F)nc2ccc(C(=O)O)cc21` [Example 299, (S)-2-(4-(6-((4-chlorobenzyl)oxy)-5-fluoropyridin-2-yl)-2,5-difluorobenzyl)-1-(4,4-dimethyltetrahydrofuran-3-yl)-1H-benzo[d]imidazole-6-carboxylic acid], the midpoint of the response, the EC50, lay at 0.342 nM.

Consider `CC1(C)COC[C@H]1n1c(Cn2cc(F)c(-c3ccc(F)c(OCc4ccc(Cl)cc4)n3)cc2=O)nc2ccc(C(=O)O)cc21` [Example 300, (S)-2-((6-((4-chlorobenzyl)oxy)-5,5′-difluoro-2′-oxo-[2,4′-bipyridin]-1′(2′H)-yl)methyl)-1-(4,4-dimethyltetrahydrofuran-3-yl)-1H-benzo[d]imidazole-6-carboxylic acid], for which the EC50 was 0.268 nM. The result for `Cc1cc(Cc2nc3ccc(C(=O)O)cc3n2[C@@H]2COCC2(C)C)c(Cl)cc1-c1ccnc(OCc2ccc(C#N)cc2)n1` [Example 301, (S)-2-(2-chloro-4-(2-((4-cyanobenzyl)oxy)pyrimidin-4-yl)-5-methylbenzyl)-1-(4,4-dimethyltetrahydrofuran-3-yl)-1H-benzo[d]imidazole-6-carboxylic acid] reads 0.714 nM.

For `CC1(C)COC[C@H]1n1c(Cc2c(F)cc(-c3cccc(OCc4ccc(Cl)cc4F)n3)cc2F)nc2ccc(C(=O)O)cc21` [Example 302, (S)-2-(4-(6-((4-chloro-2-fluorobenzyl)oxy)pyridin-2-yl)-2,6-difluorobenzyl)-1-(4,4-dimethyltetrahydrofuran-3-yl)-1H-benzo[d]imidazole-6-carboxylic acid], it took 0.181 nM to reach a half-maximal effect (EC50). As for `CC1(C)COC[C@H]1n1c(Cc2c(F)cc(-c3ccc(F)c(OCc4ccc(Cl)cc4F)n3)cc2F)nc2ccc(C(=O)O)cc21` [Example 303, (S)-2-(4-(6-((4-chloro-2-fluorobenzyl)oxy)-5-fluoropyridin-2-yl)-2,6-difluorobenzyl)-1-(4,4-dimethyltetrahydrofuran-3-yl)-1H-benzo[d]imidazole-6-carboxylic acid], the figure is 0.17 nM; as for `CC1(C)COC[C@H]1n1c(Cc2c(F)cc(-c3cccc(OCc4ccc(Cl)cc4F)n3)cc2F)nc2c(F)cc(C(=O)O)cc21` [Example 305, (S)-2-(4-(6-((4-chloro-2-fluorobenzyl)oxy)pyridin-2-yl)-2,6-difluorobenzyl)-1-(4,4-dimethyltetrahydrofuran-3-yl)-4-fluoro-1H-benzo[d]imidazole-6-carboxylic acid], 0.125 nM; as for `CC1(C)COC[C@H]1n1c(Cc2c(F)cc(-c3ccc(F)c(OCc4ccc(Cl)cc4F)n3)cc2F)nc2c(F)cc(C(=O)O)cc21` [Example 306, (S)-2-(4-(6-((4-chloro-2-fluorobenzyl)oxy)-5-fluoropyridin-2-yl)-2,6-difluorobenzyl)-1-(4,4-dimethyltetrahydrofuran-3-yl)-4-fluoro-1H-benzo[d]imidazole-6-carboxylic acid], 0.123 nM.

As for `CC1(C)COC[C@H]1n1c(Cc2c(F)cc(-c3ccc(F)c(OCc4ccc(C#N)cc4F)n3)cc2F)nc2c(F)cc(C(=O)O)cc21` [Example 307, (S)-2-(4-(6-((4-cyano-2-fluorobenzyl)oxy)-5-fluoropyridin-2-yl)-2,6-difluorobenzyl)-1-(4,4-dimethyltetrahydrofuran-3-yl)-4-fluoro-1H-benzo[d]imidazole-6-carboxylic acid], the EC50 came out at 0.508 nM. The result for `CC1(C)COC[C@H]1n1c(Cc2ccc(-c3ccc(F)c(OCc4ccc(C#N)cc4)n3)cc2F)nc2c(F)cc(C(=O)O)cc21` [Example 308, (S)-2-(4-(6-((4-cyanobenzyl)oxy)-5-fluoropyridin-2-yl)-2-fluorobenzyl)-1-(4,4-dimethyltetrahydrofuran-3-yl)-4-fluoro-1H-benzo[d]imidazole-6-carboxylic acid] reads 0.18 nM; that for `COc1nnc(COc2cccc(-c3ccc(Cc4nc5c(F)cc(C(=O)O)cc5n4[C@@H]4COCC4(C)C)c(F)c3)n2)s1` [Example 309, (S)-1-(4,4-dimethyltetrahydrofuran-3-yl)-4-fluoro-2-(2-fluoro-4-(6-((5-methoxy-1,3,4-thiadiazol-2-yl)methoxy)pyridin-2-yl)benzyl)-1H-benzo[d]imidazole-6-carboxylic acid], 0.368 nM.

The compound `CC1(C)COC[C@H]1n1c(Cc2c(F)cc(-c3ccc(F)c(OCc4ccc(Cl)cc4)n3)c(F)c2F)nc2c(F)cc(C(=O)O)cc21` [Example 310, (S)-2-(4-(6-((4-chlorobenzyl)oxy)-5-fluoropyridin-2-yl)-2,3,6-trifluorobenzyl)-1-(4,4-dimethyltetrahydrofuran-3-yl)-4-fluoro-1H-benzo[d]imidazole-6-carboxylic acid] returned an EC50 of 0.032 nM. As to `CC1(C)COC[C@H]1n1c(Cc2c(F)cc(-c3ccc(F)c(OCc4ccc(C#N)cc4)n3)c(F)c2F)nc2c(F)cc(C(=O)O)cc21` [Example 316, (S)-2-(4-(6-((4-cyanobenzyl)oxy)-5-fluoropyridin-2-yl)-2,3,6-trifluorobenzyl)-1-(4,4-dimethyltetrahydrofuran-3-yl)-4-fluoro-1H-benzo[d]imidazole-6-carboxylic acid], the EC50 was found to be 0.14 nM. As for `Cc1cc(Cc2nc3c(F)cc(C(=O)O)cc3n2[C@@H]2COCC2(C)C)c(Cl)cc1-c1ccnc(OCc2ccc(Cl)cc2F)n1` [Example 317, (S)-2-(2-chloro-4-(2-((4-chloro-2-fluorobenzyl)oxy)pyrimidin-4-yl)-5-methylbenzyl)-1-(4,4-dimethyltetrahydrofuran-3-yl)-4-fluoro-1H-benzo[d]imidazole-6-carboxylic acid], the figure is 0.451 nM; as for `Cc1cc(Cc2nc3ccc(C(=O)O)cc3n2[C@@H]2COCC2(C)C)c(Cl)cc1-c1ccnc(OCc2ccc(Cl)cc2F)n1` [Example 318, (S)-2-(2-chloro-4-(2-((4-chloro-2-fluorobenzyl)oxy)pyrimidin-4-yl)-5-methylbenzyl)-1-(4,4-dimethyltetrahydrofuran-3-yl)-1H-benzo[d]imidazole-6-carboxylic acid], 0.745 nM; as for `Cc1cc(Cc2nc3c(F)cc(C(=O)O)cc3n2[C@@H]2COCC2(C)C)c(Cl)cc1-c1ccnc(OCc2ccc(C#N)cc2F)n1` [Example 319, (S)-2-(2-chloro-4-(2-((4-cyano-2-fluorobenzyl)oxy)pyrimidin-4-yl)-5-methylbenzyl)-1-(4,4-dimethyltetrahydrofuran-3-yl)-4-fluoro-1H-benzo[d]imidazole-6-carboxylic acid], 0.346 nM. Regarding `Cc1cc(Cc2nc3ccc(C(=O)O)cc3n2[C@@H]2COCC2(C)C)c(Cl)cc1-c1ccnc(OCc2ccc(C#N)cc2F)n1` [Example 320, (S)-2-(2-chloro-4-(2-((4-cyano-2-fluorobenzyl)oxy)pyrimidin-4-yl)-5-methylbenzyl)-1-(4,4-dimethyltetrahydrofuran-3-yl)-1H-benzo[d]imidazole-6-carboxylic acid], a half-maximal response (EC50) required 0.827 nM.

In turn, `CC1(C)COC[C@H]1n1c(Cc2c(F)cc(-c3cccc(OCc4ccc(C#N)cc4F)n3)cc2F)nc2ccc(C(=O)O)cc21` [Example 321, (S)-2-(4-(6-((4-cyano-2-fluorobenzyl)oxy)pyridin-2-yl)-2,6-difluorobenzyl)-1-(4,4-dimethyltetrahydrofuran-3-yl)-1H-benzo[d]imidazole-6-carboxylic acid] returned an EC50 of 0.083 nM.

For `CC1(C)COC[C@H]1n1c(Cc2c(F)cc(-c3ccc(F)c(OCc4ccc(C#N)cc4F)n3)cc2F)nc2ccc(C(=O)O)cc21` [Example 322, (S)-2-(4-(6-((4-cyano-2-fluorobenzyl)oxy)-5-fluoropyridin-2-yl)-2,6-difluorobenzyl)-1-(4,4-dimethyltetrahydrofuran-3-yl)-1H-benzo[d]imidazole-6-carboxylic acid], the EC50 turned out to be 0.346 nM. As for `COc1cc(Cl)ncc1COc1nc(-c2cc(Cl)c(Cc3nc4ccc(C(=O)O)cc4n3[C@@H]3COCC3(C)C)cc2C)ccc1F` [Example 323, (S)-2-(2-chloro-4-(6-((6-chloro-4-methoxypyridin-3-yl)methoxy)-5-fluoropyridin-2-yl)-5-methylbenzyl)-1-(4,4-dimethyltetrahydrofuran-3-yl)-1H-benzo[d]imidazole-6-carboxylic acid], the figure is 0.734 nM; as for `COc1cc(Cl)ncc1COc1nc(-c2ccc(Cc3nc4c(F)cc(C(=O)O)cc4n3[C@@H]3COCC3(C)C)c(F)c2)ccc1F` [Example 324, (S)-2-(4-(6-((6-chloro-4-methoxypyridin-3-yl)methoxy)-5-fluoropyridin-2-yl)-2-fluorobenzyl)-1-(4,4-dimethyltetrahydrofuran-3-yl)-4-fluoro-1H-benzo[d]imidazole-6-carboxylic acid], 0.049 nM; as for `CC1(C)COC[C@H]1n1c(Cc2cc(F)c(-c3ccc(F)c(OCc4ccc(C#N)cc4)n3)cc2F)nc2c(F)cc(C(=O)O)cc21` [Example 325, (S)-2-(4-(6-((4-cyanobenzyl)oxy)-5-fluoropyridin-2-yl)-2,5-difluorobenzyl)-1-(4,4-dimethyltetrahydrofuran-3-yl)-4-fluoro-1H-benzo[d]imidazole-6-carboxylic acid], 0.155 nM. As for `CC1(C)COC[C@H]1n1c(Cn2cc(Cl)c(-c3cccc(OCc4ccc(C#N)cc4F)n3)cc2=O)nc2c(F)cc(C(=O)O)cc21` [Example 326, (S)-2-((5′-chloro-6-((4-cyano-2-fluorobenzyl)oxy)-2′-oxo-[2,4′-bipyridin]-1′(2′H)-yl)methyl)-1-(4,4-dimethyltetrahydrofuran-3-yl)-4-fluoro-1H-benzo[d]imidazole-6-carboxylic acid], the figure is 0.236 nM.
